Test results from patent publication US9682071B2, “Methods of improving microvascular integrity” (INTERMUNE, INC., priority 2013, dated 2017).

Test system: trachea allograft mouse model of acute transplant rejection
Assay: murine orthotopic tracheal transplant model (allograft rejection)
Format: in vivo
Details: for tissue oxygenation (pO2): pirfenidone-treated allografted mice vs untreated allografted controls, over time post-transplantation (FIG. 3), pO2 in mm Hg
Procedure: Pirfenidone was tested in a murine orthotopic tracheal transplant model, as generally described in Babu et al., J Clin Invest. 2007; 117(12):3774-3785. In this model in which allograft rejection occurs, typically perfusion ceases after a fixed period of time which is highly reliable (10 days). […] Perfusion is later restored on rejecting allografts as recipient-derived vessels neovascularize the transplant on d28. In contrast, mice receiving syngeneic (identical) grafts maintain tissue oxygenation at approximately the same levels throughout. Magnified images of the microvasculature, obtained after i.v. injection of FITC-conjugated (green) tomato lectin to bind and identify perfused vasculature, are shown in FIG. 1B.

For Cc1ccc(=O)n(-c2ccccc2)c1 [Pirfenidone, 5-methyl-1-phenyl-2-(1H)-pyridone], the fibrosis (allograft recipients fed pirfenidone in their chow) was “significantly attenuated”, the “perfused vasculature (FITC-conjugated tomato lectin images)” value (allograft recipients fed pirfenidone in their chow, vs control allografted mice receiving no treatment) was “the vasculature is protected” and the “appearance of vasculature at days 10 and 12” value (pirfenidone in chow, days 10 and 12 post-transplantation, FITC-lectin images (FIG. 2)) was “robust”. The “time vasculature is preserved” value (pirfenidone-treated allografted mice (FIG. 3)) was “at least 12 days post-transplantation”, the “tissue oxygenation (pO2)” value was “maintained tissue oxygenation at approximately the same levels throughout the time period shown” and the “tissue oxygenation (pO2)” value (listed as pirfenidone) was “maintaining tissue oxygenation levels at the same levels through at least day 12”.
